“And” between values parts separate entries of the source, which are not always exact repeats. Identical values can stand only once.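 Cells were grown in 96-well plates and exposed to each compound for 48 hours at five concentrations; endpoints were interpolated linearly between bracketing concentrations, or set to the highest concentration if not reached. GI50 marks 50% less growth. TGI: total growth inhibition.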
Assays:
Assay in all cases: NCI tumour cell line growth inhibition, 48 h
XF 498 CNS = system: XF 498 CNS
RXF-631 renal = system: RXF-631 renal
DLD-1 colon = system: DLD-1 colon
LXFL 529 NSCLC = system: LXFL 529 NSCLC
DMS 114 small cell lung = system: DMS 114 small cell lung
P388 leukemia = system: P388 leukemia
P388/ADR leukemia = system: P388/ADR leukemia
SN12K1 renal = system: SN12K1 renal

Row | SMILES | TGI (XF 498 CNS) [µM] | TGI (RXF-631 renal) [µM] | GI50 (DLD-1 colon) [µM] | TGI (DLD-1 colon) | GI50 (LXFL 529 NSCLC) [µM] | TGI (LXFL 529 NSCLC) | TGI (DMS 114 small cell lung) [µM] | TGI (P388 leukemia) [µM] | TGI (P388/ADR leukemia) [µM] | TGI (SN12K1 renal) [µM]
1 | NCCNc1ccc(NCCN)c2c1C(=O)c1c(O)ccc(O)c1C2=O | 0.298 | 1.13 | 0.069 | 1.05 µM and 0.974 µM | 0.105 | 0.905 µM and 1.03 µM | – | – | – | –
2 | CC(=O)C(C(=O)C(=O)Nc1cc(Cl)c(Cl)cc1Cl)c1csc(N)n1 (stereo unspecified) | > 100 | > 100 | – | > 100 µM | – | > 100 µM | > 100 | – | – | –
3 | CCCCCC1CC(C(C)=O)CN1c1ccc(F)cc1 (stereo unspecified) | 52.5 | – | – | > 100 µM | – | > 100 µM | 62 | – | – | –
4 | C[N+]1(C)C/C(=C\C=C\c2ccccc2)C(=O)/C(=C/C=C/c2ccccc2)C1 | 57.4 | – | – | 45.5 µM | – | 11.6 µM | 10.9 | – | – | –
5 | O=[N+]([O-])c1cc(C(F)(F)F)cc2c1SC1=Nc3ccccc3CN12 | > 100 | – | – | > 100 µM | – | – | > 100 | > 100 | > 100 | > 100
6 | Nc1n[nH]c(N)n1 | 2750 | – | – | > 10000 µM | – | – | 6880 | 4240 | 8070 | > 10000
7 | CCC/C=C/C=C\C(=O)O[C@@H]1[C@@H](C)[C@]2(O)[C@@H]3C=C(C)C(=O)[C@H]3CC(COC(C)=O)=C[C@H]2[C@@H]2C(C)(C)[C@]12OC(C)=O | 16.7 | – | – | 57.2 µM | – | – | 94.6 | 9.61 | 300 | 48.8
8 | NCCCC(N)(C(=O)O)C(F)F (stereo unspecified) | – | – | – | > 5000 µM | – | – | > 5000 | > 5000 | > 5000 | > 1580
9 | CCN(CC)CCCNC(=O)c1ccccc1Nc1c(Cl)cccc1Cl | 9.71 | – | – | 23.8 µM | – | 28.8 µM | 26.2 | – | – | –
